Test: Stability of I3A isoforms in the assay solvent systems over 72 h
Assay type: physicochemical
Protocol: The stability of […] isoforms 'a', 'b' and 'c' in the three sample systems over 72 h (equivalent to the maximum possible length of time the samples might be held in the autosampler during a long HPLC analytical run) was confirmed as follows. Standards of the three isoforms of […] The standards were then each divided into three equal volumes and placed at 2-8° C., room temperature and 40° C. for 72 h and were then again analysed by HPLC.

[1] = Acetonitrile/Citrate buffer (pH 3), 72 h 2-8° C.
[2] = Acetonitrile/Citrate buffer (pH 3), 72 h 40° C.
[3] = Acetonitrile/Citrate buffer (pH 3), 72 h RTP
[4] = Acetonitrile/Citrate buffer (pH 3), Time 0 h
[5] = Acetonitrile/Sodium acetate buffer (pH 4.5), 72 h 2-8° C.
[6] = Acetonitrile/Sodium acetate buffer (pH 4.5), 72 h 40° C.
[7] = Acetonitrile/Sodium acetate buffer (pH 4.5), 72 h RTP
[8] = Acetonitrile/Sodium acetate buffer (pH 4.5), Time 0 h

SMILES: CC=C(C)C(=O)OC1C(CO)=CC2C(=O)C3(C=C(C)C(O)C13O)C(C)CC1C2C1(C)C (stereo not drawn) [Isoform ‘a’, ingenol-5-angelate]
- % ‘a’ (Acetonitrile, 72 h 2-8° C.): 90.63%
- % ‘b’ (Acetonitrile, 72 h 2-8° C.): 5.71%
- % ‘c’ (Acetonitrile, 72 h 2-8° C.): 2.55%
- % ‘a’ (Acetonitrile, 72 h 40° C.): 16.36%
- % ‘b’ (Acetonitrile, 72 h 40° C.): 47.01%
- % ‘c’ (Acetonitrile, 72 h 40° C.): 35.74%
- % ‘a’ (Acetonitrile, 72 h RTP): 86.58%
- % ‘b’ (Acetonitrile, 72 h RTP): 7.8%
- % ‘c’ (Acetonitrile, 72 h RTP): 3.65%
- % ‘a’ (Acetonitrile, Time 0 h): 96.82%
- % ‘b’ (Acetonitrile, Time 0 h): 2.24%
- % ‘c’ (Acetonitrile, Time 0 h): 0.29%
- % ‘a’ [1]: 98.31%
- % ‘b’ [1]: 1.46%
- % ‘c’ [1]: 0%
- % ‘a’ [2]: 98.13%
- % ‘b’ [2]: 1.79%
- % ‘c’ [2]: 0%
- % ‘a’ [3]: 98.84%
- % ‘b’ [3]: 1.08%
- % ‘c’ [3]: 0%
- % ‘a’ [4]: 97.91%
- % ‘b’ [4]: 1.63%
- % ‘c’ [4]: 0%
- % ‘a’ [5]: 96.47%
- % ‘b’ [5]: 2.83%
- % ‘c’ [5]: 0%
- % ‘a’ [6]: 82.51%
- % ‘b’ [6]: 16.62%
- % ‘c’ [6]: 0%
- % ‘a’ [7]: 95.25%
- % ‘b’ [7]: 4.22%
- % ‘c’ [7]: 0%
- % ‘a’ [8]: 96.65%
- % ‘b’ [8]: 2.16%
- % ‘c’ [8]: 0.23%

SMILES: CC=C(C)C(=O)OCC1=CC2C(=O)C3(C=C(C)C(O)C3(O)C1O)C(C)CC1C2C1(C)C (stereo not drawn) [Isoform ‘c’, ingenol-20-angelate]
- % ‘a’ (Acetonitrile, 72 h 2-8° C.): 1.62%
- % ‘b’ (Acetonitrile, 72 h 2-8° C.): 0%
- % ‘c’ (Acetonitrile, 72 h 2-8° C.): 96.69%
- % ‘a’ (Acetonitrile, 72 h 40° C.): 0.6%
- % ‘b’ (Acetonitrile, 72 h 40° C.): 0%
- % ‘c’ (Acetonitrile, 72 h 40° C.): 97.09%
- % ‘a’ (Acetonitrile, 72 h RTP): 1.55%
- % ‘b’ (Acetonitrile, 72 h RTP): 0.27%
- % ‘c’ (Acetonitrile, 72 h RTP): 97.19%
- % ‘a’ (Acetonitrile, Time 0 h): 1.28%
- % ‘b’ (Acetonitrile, Time 0 h): 0.41%
- % ‘c’ (Acetonitrile, Time 0 h): 97.30%
- % ‘a’ [1]: 0.87%
- % ‘b’ [1]: 0.16%
- % ‘c’ [1]: 98.84%
- % ‘a’ [2]: 0%
- % ‘b’ [2]: 0%
- % ‘c’ [2]: 98.7%
- % ‘a’ [3]: 0.53%
- % ‘b’ [3]: 0%
- % ‘c’ [3]: 99.24%
- % ‘a’ [4]: 1.12%
- % ‘b’ [4]: 0.20%
- % ‘c’ [4]: 98.41%
- % ‘a’ [5]: 1.41%
- % ‘b’ [5]: 0.27%
- % ‘c’ [5]: 97.17%
- % ‘a’ [6]: 0%
- % ‘b’ [6]: 0%
- % ‘c’ [6]: 97.75%
- % ‘a’ [7]: 0.83%
- % ‘b’ [7]: 0%
- % ‘c’ [7]: 97.97%
- % ‘a’ [8]: 1.34%
- % ‘b’ [8]: 0.45%
- % ‘c’ [8]: 97.02%

— patent publication US8735375B2, “Therapeutic compositions” (Leo Laboratories Limited, priority 2005, dated 2014)
